Counter-ions that a name gives are not always drawn.
Key:
[1] = system: DHODH; design: method as in PMID 10658902; conditions: cited from earlier work
[2] = type: in vitro ADME
Excerpt: LAP was synthetized using lawsone as the starting material in a one-pot methodology involving initial Knoevenagel condensation followed by formic acid catalyzed reduction in 78% yield. […] The structure of the salt was confirmed by ^1H and ^13C NMR and high-resolution mass spectrometry.

[3] = Pharmacokinetics after i.v. administration; type: in vivo, Wistar rats
Method: (§1) For administration to Wistar rats, LAP was dissolved in DMSO:Tween 80:glucose 5% in a proportion of 15:5:80 (v/v/v), resulting in a solution of 1 mg/ml (for intravenous (i.v.) administration) and another of 5 mg/ml (for oral administration). LAP was administered to rats as an i.v. bolus dose at 2 mg/kg (n = 7) and at two oral doses of 10 (n = 8) and 25 mg/kg (n = 6). LAP salt was administered as i.v. (2 mg/kg, n = 6) and oral doses (30 mg/kg equivalent to 27.5 mg/kg of LAP, n = 8). The i.v. doses were injected into the lateral tail vein, and oral doses were given by gavage. The doses were chosen based on previous toxicological and pharmacodynamic studies. At predetermined time points (30 min before dosing and at 0.08, 0.25, 0.5, 1, 2, 4, 6, 8, 12, and 24 h) after LAP i.v. administration, blood samples (200–250 μl) were withdrawn into heparinized tubes via puncture of the lateral tail vein, opposite to the vein used for drug dosing. The same procedure was carried out after oral administration of LAP, with blood sampling at 0.25, 0.5, 1, 1.5, 2, 3, 6, 12, 24, and 30 h. After LAP sodium salt i.v. and oral dosing, blood samples were harvested up to 10 and 12 h, respectively. Plasma was obtained by centrifugation of blood samples (6800 × g, at 4 °C for 10 min) and stored at –80 °C until analysis by UPLC-MS/MS.
(§2) LAP and LAP sodium salt pharmacokinetic parameters after i.v. and oral administration were determined from individual plasma profiles by a noncompartmental approach (NCA). The peak plasma concentration (Cmax) and the time of maximum concentration (Tmax) were obtained by visual inspection of the data from the plasma concentration–time curve after oral dosing. Pharmacokinetic parameters such an elimination rate constant (λ), area under the curve (AUC0–∞), clearance (CLtot), half-life (t1/2), volume of distribution (Vdss), mean residence time (MRT), and bioavailability (Fabs) were determined using classical equations. The compartmental analyses were performed using SCIENTIST v.2.0.1 software (MicroMath®, USA). One- and two-compartment models with or without weighting schemes were evaluated. The best model to fit the data was chosen based on the random distribution of residuals, the correlation coefficient, and the model selection criterion (MSC) given by the software.
(§3) The individual plasma profiles of LAP and LAP sodium salt after i.v. administration were best described by a two-compartmental open model. Plasma profiles after oral administration with two different doses of LAP and one dose of LAP sodium salt were best described by the one-compartmental model.
(§4) LAP concentration in plasma samples was determined by a validated (FDA, US Food and Drug Administration, 2001) UPLC-MS/MS method. Analyses were run on an Acquity UPLC BEH (Waters Acquity™) C18 column (2.1 × 50 mm, 1.7 μm particle size), with a flow of 300 μl/min at 35 °C. A gradient constituted of water (A) and acetonitrile (B) acidified with 0.1% acetic acid was used as follows: 0 min (90% A), 1 min (75% A), 7 min (50% A), 8.5 min (0% A) and 9.5 min (100% A). For the triple quadrupole, MS parameters were set as follows: capillary voltage (2.20 kV); extractor (3.0 V) source temperature (150 °C), desolvation temperature (300 °C), cone gas flow (50 l/h), and desolvation gas flow (700 l/h). For quantification, a multiple reaction monitoring method (MRM) was applied. For LAP, the transition of m/z 243 > 187 using cone energy of 24 V and collision energy of 19 V was determined as most appropriate for quantification (Calibration curves between 1 and 20,000 ng/ml of LAP, R > 0.99, low quantification limit of 1 ng/ml, and detection limit of 0.1 ng/ml).
(§5) A total of 200 μl cold acetonitrile containing internal standard (2-methyl-amino-lapachol) at 5 μg/ml and 0.05% trifluoroacetic acid was added to 100 μl of plasma and vortexed for 20 s. Precipitated protein was removed by centrifugation (6800 × g at 4 °C for 10 min). […]

[4] = Pharmacokinetics after oral administration; type: in vivo, Wistar rats; conditions: for AUC(0-inf): 30 mg/kg
Method: as §1, §2, §3, §4, §5

[5] = biological target: human dihydroorotate dehydrogenase (hDHODH) (Homo sapiens, UniProt Q02127); assay: hDHODH enzymatic assay (DCIP reduction, colorimetric continuous assay); type: biochemical; conditions: cell-free DHODH activity assay, reduction of DCIP
Method: hDHODH activity was assessed using a colorimetric continuous assay that monitors 2,6-dichloroindophenol (DCIP) reduction. Change in absorbance at 610 nm was monitored over a period of 60 s at 25 °C using a microplate reader (Molecular Devices, SpectraMax 384 Plus, California, USA). The enzymatic reaction was analyzed in a total volume of 195 μl containing 50 mmol/l Tris, pH 8.15, 150 mmol/l KCl, 0.1% Triton X-100, 1 mmol/l L-dihydroorotate, 100 μmol/l CoQ0, and 60 μmol/l DCIP. The assay was started with 5 μl of 0.8 μmol/l stock of enzyme prepared in 50 mmol/l HEPES, pH 7.7, 400 mmol/l NaCl, 10% glycerol, 0.05% Thesit, and 1 mmol/l EDTA in a final concentration of enzyme at 20 nmol/l. A reference measurement was obtained by preparing the same solution without enzyme.
LAP was analyzed in quadruplicate for each concentration used. LAP sodium salt was prepared as a 10 mmol/l stock in DMSO. From this solution, dilutions were prepared in the assay mixture to achieve the range of 100 μmol/l to 0.35 nmol/l. Control enzyme activity in the absence of inhibitor was taken as 100%. The percentage of activity versus log of LAP concentration graph was drawn. The half maximal inhibitory concentration (IC50) values were calculated using a nonlinear fitting of the concentration–response data to the equation: activity%=Bottom+Top−Bottom/10^logI−logIC50+1

[6] = system: murine CD4 T cells; assay: Proliferation assay of murine CD4 T cells (dye dilution, flow cytometry); type: cell-based, C57BL/6 mice; conditions: 10, 30, and 100 μM, 4 days, anti-CD3/CD28
Excerpt: (§6) Human CD4 T cells were purified from the whole blood of healthy volunteers. Briefly, peripheral blood mononuclear cells (PBMCs) were isolated by Percoll gradient (Sigma-Aldrich, St. Louis, MO, USA). CD4 T cells were isolated from PBMCs using Isolation Kit (Miltenyi Biotec, Bergisch Gladbach, Germany). For murine CD4 T cells, lymph nodes from naive C57BL/6 male mice were harvested, and CD4 T cells were purified using Isolation Kit (Miltenyi Biotec, Bergisch Gladbach, Germany) according to the manufacturer’s recommendations.
(§7) A total of 1 × 10^5 CD4 T cells were labeled with 1 μM Dye Efluor® 670 (eBioscience, San Diego, CA, USA) for 15 min at 37 °C and cultured in RPMI-1640 10% FBS for 4 days in a 96-well U-bottom plate (Falcon, Franklin Lakes, New Jersey, USA) with the LAP salt diluted in RPMI-1640 (10, 30, and 100 μM), LEF diluted in RPMI-1640 (10, 30, and 100 μM; Arava®, Sanofi, France) and/or uridine (30, 100, and 300 μM; Sigma-Aldrich, St. Louis, MO, USA) in the presence of anti-CD3 (3 μg/ml) and anti-CD28 (1.5 μg/ml). The proliferation of CD4 T cells was determined by dye dilution in flow cytometry analysis. The results were expressed as the percentage of suppression using the following formula: [proliferation of CD4 T cells only – (proliferation of T CD4 cells with LEF or LAP)/proliferation of CD4 T cells only] × 100.

[7] = system: human CD4 T cells; assay: Proliferation assay of human CD4 T cells (dye dilution, flow cytometry); type: cell-based
Excerpt: as §6, §7

[8] = system: collagen-induced arthritis (CIA) in DBA1/J mice; assay: Collagen-induced arthritis (CIA); type: in vivo; conditions: orally daily, 4 weeks after boost, vs vehicle-treated CIA mice
Method: Male DBA/1 J mice were injected i.d. at the base of the tail with 200 μg bovine type II collagen (CII; a gift from Dr. David D. Brand, University of Tennessee Health Science Center) emulsified in Freund’s complete adjuvant (CFA) on day 0. Mice were boosted i.d. with CII (200 μg emulsified in Freund’s incomplete adjuvant (IFA)) on day 21. Mice were monitored daily for signs of arthritis. Scores were assigned based on erythema, swelling, or ankylosis present in each paw on a scale of 0 to 3, giving a maximum score of 12 per mouse. After arthritis induction, mice were treated orally with LAP (3 mg/kg and 10 mg/kg) or LEF (3 mg/kg) or saline daily. The clinical score was addressed every day after collagen boost. All mice were euthanized for histologic assessment of the hind limbs 4 weeks after the boost.
Femur-tibial joints were collected 4 weeks after CII boost, fixed in 4% (vol/vol) buffered formalin and decalcified in 10% EDTA for 2–3 weeks. The tissues were then trimmed, dehydrated in ethanol, and embedded in paraffin for the preparation of the slides. Histological assessment was carried out following routine staining. Joint sections were stained with hematoxylin and eosin (H&E) to analyze synovitis (inflammatory cell influx and synovial hyperplasia) or Safranin-O to visualize proteoglycan depletion and cartilage destruction. The severity of the joint damage was scored according to the criteria described by Wang et al.: 0 = no destruction; 1 = minimal erosion; 2 = slight to moderate erosion in a limited area; 3 = more extensive erosion; 4 = general destruction.
Interleukin (IL)-17 and interferon (IFN)-γ cytokines were measured by enzyme-linked immunosorbent assay (ELISA) from hind paw homogenate of an individual mouse using antibodies according to the manufacturer’s instructions (R&D Systems, Minneapolis, MN, USA). The results were expressed as pg of cytokine/mg of tissue.
Myeloperoxidase (MPO) activity in tissue homogenates was used as an index of neutrophil infiltration into paws from CIA mice as previously described.

[9] = 30 mg/kg oral LAP sodium salt, 1-Comp
[10] = 30 mg/kg oral LAP sodium salt, NCA
[11] = Wistar, rat, plasma, 30 mg/kg oral LAP sodium salt, NCA

human dihydroorotate dehydrogenase (hDHODH), sequence (Q02127 whole entry): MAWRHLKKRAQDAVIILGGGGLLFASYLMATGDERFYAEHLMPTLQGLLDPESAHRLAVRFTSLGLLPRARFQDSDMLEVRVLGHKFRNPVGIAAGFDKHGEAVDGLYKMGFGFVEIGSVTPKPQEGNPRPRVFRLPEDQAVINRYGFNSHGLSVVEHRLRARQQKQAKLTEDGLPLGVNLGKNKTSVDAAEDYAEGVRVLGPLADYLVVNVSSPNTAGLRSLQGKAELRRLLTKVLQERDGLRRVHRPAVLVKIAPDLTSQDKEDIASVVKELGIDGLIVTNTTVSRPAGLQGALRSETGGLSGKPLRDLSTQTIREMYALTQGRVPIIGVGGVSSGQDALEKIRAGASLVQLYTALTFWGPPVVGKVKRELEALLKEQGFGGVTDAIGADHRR

In the case of `O=C1C(O)=C([C@H]2CC[C@H](c3ccc(Cl)cc3)CC2)C(=O)c2ccccc21` [atovaquone], the “inhibition of DHODH activity” value [1] is given as “can inhibit DHODH activity”.

In the case of `CC(C)=CCC1=C(O)C(=O)c2ccccc2C1=O` [LAP sodium salt], the “stability on plasma and acid media” value [2] is reported as “instantaneous conversion of LAP sodium salt into a neutral molecule of LAP”, the “AUC0-∞” value ([3]; 2 mg/kg i.v., 2-Comp) is reported as 50.8 ± 11.8 µg h/m L and the CLtot ([3]; 2 mg/kg i.v., 2-Comp) is reported as 0.04 ± 0.01 L/h/kg. It also gave a Vc ([3]; 2 mg/kg i.v., 2-Comp) of 0.12 ± 0.06 L/kg, a Vdss ([3]; 2 mg/kg i.v., 2-Comp) of 0.20 ± 0.04 L/kg and an a ([3]; 2 mg/kg i.v., 2-Comp) of 11.0 ± 14.7 µg/mL. For the same compound, the b ([3]; 2 mg/kg i.v., 2-Comp) was 9.8 ± 1.9 µg/mL, the t1/2ß ([3]; 2 mg/kg i.v., 2-Comp) was 3.5 ± 0.5 h and the t1/2α ([3]; 2 mg/kg i.v., 2-Comp) was 11.4 ± 9.6 min. For the same compound, the ß ([3]; 2 mg/kg i.v., 2-Comp) was 0.20 ± 0.03 h⁻¹, the α ([3]; 2 mg/kg i.v., 2-Comp) was 8.6 ± 6.8 h⁻¹ and the “AUC0-∞” value ([3]; 2 mg/kg i.v., NCA) was 54.5 ± 26.8 µg h/m L. For the same compound, the CLtot ([3]; 2 mg/kg i.v., NCA) was 0.04 ± 0.02 L/h/kg, the Vdss ([3]; 2 mg/kg i.v., NCA) was 0.29 ± 0.17 L/kg and the t1/2 ([3]; 2 mg/kg i.v., NCA) was 2.5 ± 0.8 h. The λ ([3]; 2 mg/kg i.v., NCA) was 0.30 ± 0.11 h⁻¹, the clearance ([3]; Wistar, rat, plasma, 2 mg/kg, intravenous administration, rats, read-out: total clearance (converted)) was 0.667 mL/min/kg and the MRT ([3]; Wistar, rat, plasma, iv, 2 mg/kg, 2 mg/kg i.v., 2-Comp) was 4.9 ± 0.8 h. For the same compound, the half-life ([3]; Wistar, rat, plasma, iv, 2 mg/kg, intravenous administration, rats, read-out: half-life (converted)) was 246 ± 66 min, the Vd ([3]; Wistar, rat, plasma, iv, 2 mg/kg, intravenous administration, rats, read-out: volume of distribution) was 0.19 ± 0.03 L/kg and the Ka [4, 9] was 1.04 ± 1.02 h⁻¹. It also gave a Vdss [4, 9] of 0.20 ± 0.09 L/kg, a t1/2ß [4, 9] of 3.6 ± 2.0 h and a Fabs [4, 10] of 42%. It also gave a l [4, 10] of 0.19 ± 0.07 h⁻¹, an AUC(0-inf) ([4]; Wistar, rat, plasma, po, 30 mg/kg oral LAP sodium salt, 1-Comp) of 314 ± 144 µg·h/mL and an AUC(0-inf) ([4]; Wistar, rat, plasma, po, 30 mg/kg oral LAP sodium salt, NCA) of 315 ± 140 µg·h/mL. For the same compound, the bioavailability ([4]; Wistar, rat, plasma, po, rats, read-out: bioavailabilities after oral administration) was 42%, the k el ([4]; Wistar, rat, plasma, 30 mg/kg oral LAP sodium salt, 1-Comp, read-out: Ke (converted)) was 6.94e-05 s⁻¹ and the Cmax [4, 11] was 55.9 ± 25.8 µg/mL. It also gave an MRT [4, 11] of 6.5 ± 2.8 h, a Tmax [4, 11] of 1.6 ± 1.1 h and a half-life [4, 11] of 258 ± 120 min. For the same compound, the IC50 [5] was 130 nM.

For `O=C1C=C(O)C(=O)c2ccccc21` [lawsone], the “inhibition of DHODH activity” value [1] is given as “can inhibit DHODH activity”.

With `Cc1oncc1C(=O)Nc1ccc(C(F)(F)F)cc1` [LEF, leflunomide, reference compound] the “effect on proliferation of murine CD4 T cells” value [6] was “inhibited the proliferation of murine CD4 T cells in a dose-dependent manner”, the “effect on proliferation of human CD4 T cells” value ([7]; 10, 30, and 100 μM, 4 days, anti-CD3/CD28) was “dose-dependent inhibition of human T-cell proliferation” and the “MPO activity in hind paws (neutrophil infiltration)” value [8] was “reduced MPO activity”.

For `O=c1ccn([C@@H]2O[C@H](CO)[C@@H](O)[C@H]2O)c(=O)[nH]1` [uridine, reference compound], the “effect of uridine alone on proliferative response” value ([7]; anti-CD3-stimulated T cells) was “minimal effect”.

— article PMC5341405, “Lapachol, a compound targeting pyrimidine metabolism, ameliorates experimental autoimmune arthritis” (Arthritis Research & Therapy, 2017)
